Experiment in all cases: NCI tumour cell line growth inhibition, 48 h
Experiment [1] deals with RXF 393.
The subject of experiment [2] is OVCAR-8.
Experiment [3] concerns CCRF-CEM.
Experiment [4] concerns OVCAR-3.
Experiment [5] deals with M14.
The subject of experiment [6] is SF-539.
The subject of experiment [7] is KM12.
For experiment [8], the system named is A498.
The subject of experiment [9] is HT-29.
For experiment [10], the system named is UACC-62.
The test system of experiment [11] is SN12C.
For experiment [12], the system named is MOLT-4.
Experiment [13] has as its system SK-MEL-5.
Experiment [14] deals with DMS-273.
Experiment [15] concerns COLO 205.
Experiment [16] has as its system MDA-N.
Experiment [17] deals with MCF7.
In experiment [18] the test system is SR.
Experiment [19] deals with PC-3.
Experiment [20] has as its system NCI-H460.

The structures appear in SMILES notation.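 Test compounds were applied to cells in 96-well plates for 48 hours at 5 doses. Abbreviation: GI50, concentration required for 50% inhibition of growth.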 Calls of active or inactive are those of the source. Rule as the data show it: active = GI50 up to about 1.1 µM and inactive = higher.

For `COc1cc(/C=C(\NC(=O)c2ccccc2)c2nc3ccc4c(c3[nH]2)C(=O)c2ccccc2C4=O)cc(OC)c1OC`, the GI50 was 22.8 µM (inactive) in [1]; 41.6 µM (inactive) in [2]; 0.687 µM (active) in experiment [3]; 38.1 µM (inactive) in experiment [4]; 63.1 µM (inactive) in experiment [5]; 20.1 µM (inactive) in [6]. The GI50 in experiment [7] was 8.05 µM (inactive); in experiment [8], 13.1 µM (inactive); in experiment [9], > 100 µM (inactive); in experiment [10], 38.1 µM (inactive); in experiment [11] it was 32.5 µM (inactive); in [12], 2.52 µM (inactive). Moreover, the GI50 in experiment [13] is 35 µM (inactive); in experiment [14], 40.7 µM (inactive); in [15], > 100 µM (inactive).
Regarding `CCOC(=O)CCC(NC(=O)c1ccc(Nc2nc3ccccc3nc2-c2cccs2)cc1)C(=O)OCC` (configuration not stated), the GI50 was 87.3 µM (inactive) in experiment [1]; 20.8 µM (inactive) in experiment [2]; 11.4 µM (inactive) in [3]; > 100 µM (inactive) in experiment [4]; > 100 µM (inactive) in experiment [5]; 32.7 µM (inactive) in experiment [6]. In addition, the GI50 is 24.6 µM (inactive) in experiment [7]; 20.6 µM (inactive) in experiment [16]; 21.7 µM (inactive) in experiment [8]; 26.9 µM (inactive) in [17]; 11.8 µM (inactive) in experiment [18]; 25.6 µM (inactive) in experiment [9]. Further, the GI50 in experiment [19] is 38.5 µM (inactive); in experiment [10], 23.7 µM (inactive); in experiment [11], 22.1 µM (inactive); in experiment [12], 7.98 µM (inactive); in [20] it was 25.1 µM (inactive); in experiment [13], 15.2 µM (inactive). Further, in [15], the GI50 is 25.2 µM (inactive).
Consider `CC(=O)OC/C=C/[C@H](O[Si](C)(C)C(C)(C)C)[C@@H](O)/C=C/COC(C)=O`, for which the GI50 is > 100 µM (inactive) in [1]; > 100 µM (inactive) in [2]; 26 µM (inactive) in experiment [3]; > 100 µM (inactive) in experiment [4]; > 100 µM (inactive) in [5]; > 100 µM (inactive) in experiment [6]. In addition, the GI50 was > 100 µM (inactive) in experiment [7]; > 100 µM (inactive) in experiment [16]; > 100 µM (inactive) in experiment [8]; 49.5 µM (inactive) in [17]; 30.4 µM (inactive) in experiment [18]; > 100 µM (inactive) in experiment [9]. Moreover, the GI50 was > 100 µM (inactive) in experiment [19]; > 100 µM (inactive) in experiment [10]; > 100 µM (inactive) in experiment [11]; 23.7 µM (inactive) in experiment [12]; > 100 µM (inactive) in [20]; > 100 µM (inactive) in experiment [13]. In addition, the GI50 in experiment [15] was > 100 µM (inactive).
For `Cc1cc2oc(C)c(S(=O)(=O)NC(=O)Nc3ccc(Cl)cc3)c(=O)c2c(=O)o1`, the GI50 in experiment [1], in [2], in experiment [3], in experiment [4], in [5] and in experiment [6] was > 100 µM (inactive) in each case. For the same compound, the GI50 in experiment [7], in experiment [16], in [8], in experiment [17], in [18] and in experiment [9] was > 100 µM (inactive) in each case. Besides, the GI50 in [19] is 83.6 µM (inactive); in [10], 30.9 µM (inactive); in experiment [11], > 100 µM (inactive); in experiment [12], > 100 µM (inactive); in experiment [20], > 100 µM (inactive); in experiment [13], > 100 µM (inactive). Also, the GI50 in [15] is > 100 µM (inactive).
As to `N#Cc1c(O)c(C=O)c(=O)n2c1[nH]c1ccccc12`, the GI50 in [1], in experiment [2], in experiment [3], in [4], in experiment [5] and in [6] was > 100 µM (inactive) each time. In addition, the GI50 is > 100 µM (inactive) in [7]; > 100 µM (inactive) in experiment [16]; > 100 µM (inactive) in experiment [8]; 44.3 µM (inactive) in [17]; 61.4 µM (inactive) in experiment [18]; > 100 µM (inactive) in experiment [9]. For the same compound, the GI50 in experiment [19], in experiment [10], in experiment [11], in [12], in experiment [20] and in [13] was > 100 µM (inactive) throughout. For the same compound, in [15], the GI50 was > 100 µM (inactive).
As to `C#CCN(Cc1ccc2nc(OC)c(OC)nc2c1)c1cc(OC)c(OC)c(OC)c1`, the GI50 in experiment [1] was 14.9 µM (inactive); in experiment [2], 20.7 µM (inactive); in experiment [3], 34.9 µM (inactive); in [4] it was 37.8 µM (inactive); in experiment [5] it was 22.1 µM (inactive); in experiment [6], 18.5 µM (inactive). The GI50 is 15 µM (inactive) in experiment [7]; 7.31 µM (inactive) in experiment [16]; 35.5 µM (inactive) in [8]; 11.9 µM (inactive) in experiment [17]; 26.5 µM (inactive) in experiment [18]; 21.8 µM (inactive) in experiment [9]. For the same compound, the GI50 in experiment [19] is 26.1 µM (inactive); in [10] it was 18.9 µM (inactive); in [11] it was 18.2 µM (inactive); in experiment [12], 16.9 µM (inactive); in experiment [20], 20 µM (inactive); in experiment [13], 7.82 µM (inactive). In addition, the GI50 in experiment [15] is 17.4 µM (inactive).
For the compound `Cn1c(=O)c(C(=O)NC(=O)OCc2ccccc2)cn(CCSCCOC(=O)NCCCCCCNC(=O)OCCSCCn2cc(C(=O)NC(=O)OCc3ccccc3)c(=O)n(C)c2=O)c1=O`, the GI50 is 33.7 µM (inactive) in [1]; > 100 µM (inactive) in [2]; > 100 µM (inactive) in experiment [3]; > 100 µM (inactive) in experiment [5]; 32.5 µM (inactive) in experiment [6]; > 100 µM (inactive) in experiment [8]. Moreover, the GI50 in experiment [10], in [11], in experiment [12], in [20], in experiment [13] and in [14] was > 100 µM (inactive) each time. Moreover, the GI50 in [15] is > 100 µM (inactive).
As to `N=c1oc2ccc(Cl)cc2cc1C(=O)NCc1ccccc1`, the GI50 is 17.8 µM (inactive) in experiment [1]; > 100 µM (inactive) in [2]; 21.5 µM (inactive) in experiment [3]; > 100 µM (inactive) in experiment [4]; > 100 µM (inactive) in experiment [5]; > 100 µM (inactive) in experiment [6]. Moreover, the GI50 was 43.4 µM (inactive) in experiment [7]; > 81.7 µM (inactive) in experiment [16]; 63.5 µM (inactive) in [8]; > 100 µM (inactive) in [17]; > 57.1 µM (inactive) in experiment [18]; > 100 µM (inactive) in experiment [9]. For the same compound, the GI50 was 98.9 µM (inactive) in experiment [19]; 31.6 µM (inactive) in experiment [10]; > 100 µM (inactive) in experiment [11]; 31.2 µM (inactive) in experiment [12]; > 100 µM (inactive) in experiment [20]; > 100 µM (inactive) in [13]. The GI50 in [15] was > 100 µM (inactive).
Regarding `Cc1nc2ccccc2c(=O)n1/N=C(\N=N\c1ccccc1)c1ccccc1Cl`, the GI50 in [1] was 21.6 µM (inactive); in [2], 59.7 µM (inactive); in experiment [3], 26.7 µM (inactive); in experiment [4] it was 27 µM (inactive); in experiment [5], > 86.7 µM (inactive); in [6] it was 23.5 µM (inactive). For the same compound, the GI50 was 41.4 µM (inactive) in experiment [7]; 20.6 µM (inactive) in experiment [8]; 43.8 µM (inactive) in [9]; 54.6 µM (inactive) in experiment [10]; 32.4 µM (inactive) in experiment [11]; 14.8 µM (inactive) in [12]. The GI50 in experiment [20] was 24 µM (inactive); in [13], 38.3 µM (inactive); in [14] it was 41 µM (inactive); in experiment [15], > 100 µM (inactive).
`N#Cc1ccc(C2SCc3nc4ccccc4n32)cc1` (configuration not stated): the GI50 is 10.5 µM (inactive) in [1]; 76.9 µM (inactive) in experiment [2]; > 100 µM (inactive) in [3]; > 100 µM (inactive) in [4]; 54.2 µM (inactive) in experiment [5]; 84.7 µM (inactive) in experiment [6]. Also, the GI50 in [7] was > 100 µM (inactive); in experiment [8], 58.7 µM (inactive); in [10] it was 50.7 µM (inactive); in [11] it was 75 µM (inactive); in experiment [12], 63.1 µM (inactive); in experiment [20], > 100 µM (inactive). Further, the GI50 in experiment [13] was 32.7 µM (inactive); in [14], > 100 µM (inactive); in experiment [15], > 100 µM (inactive).
`Oc1c(Cl)c(Cl)c(Cl)c(Cl)c1Cl` [PENTACHLOROPHENOL]: the GI50 in [1] is 23.2 µM (inactive); in experiment [2], 20.8 µM (inactive); in experiment [3] it was 21.3 µM (inactive); in experiment [4], 18.7 µM (inactive); in [5] it was 20.9 µM (inactive); in [6] it was 21.5 µM (inactive). The GI50 in experiment [7] is 19.5 µM (inactive); in experiment [16], 23.2 µM (inactive); in experiment [8], 19 µM (inactive); in experiment [17], 24.9 µM (inactive); in experiment [18], 26.1 µM (inactive); in experiment [9], 21.2 µM (inactive). In addition, the GI50 in experiment [19] is 18.9 µM (inactive); in [10], 16.4 µM (inactive); in [11], 19.1 µM (inactive); in experiment [12], 20.6 µM (inactive); in experiment [20] it was > 100 µM (inactive); in experiment [13], 18.3 µM (inactive). Besides, in experiment [15], the GI50 is 31 µM (inactive).

For the origin of these results see ChEMBL document CHEMBL1201862, “PubChem BioAssay data set” (2004).
